Data reported in US11304946B2, “2-hetarylpyrimidine-4-carboxamides as aryl hydrocarbon receptor antagonists” (Bayer Aktiengesellschaft, priority 2017, dated 2022).

Target: T1, Human AhR (Homo sapiens, UniProt P35869)
T1 construct: host or cells: U87 glioblastoma cells, stably transfected with DRE-driven firefly luciferase and constitutive renilla reporter constructs
T1 sequence (P35869 11-848): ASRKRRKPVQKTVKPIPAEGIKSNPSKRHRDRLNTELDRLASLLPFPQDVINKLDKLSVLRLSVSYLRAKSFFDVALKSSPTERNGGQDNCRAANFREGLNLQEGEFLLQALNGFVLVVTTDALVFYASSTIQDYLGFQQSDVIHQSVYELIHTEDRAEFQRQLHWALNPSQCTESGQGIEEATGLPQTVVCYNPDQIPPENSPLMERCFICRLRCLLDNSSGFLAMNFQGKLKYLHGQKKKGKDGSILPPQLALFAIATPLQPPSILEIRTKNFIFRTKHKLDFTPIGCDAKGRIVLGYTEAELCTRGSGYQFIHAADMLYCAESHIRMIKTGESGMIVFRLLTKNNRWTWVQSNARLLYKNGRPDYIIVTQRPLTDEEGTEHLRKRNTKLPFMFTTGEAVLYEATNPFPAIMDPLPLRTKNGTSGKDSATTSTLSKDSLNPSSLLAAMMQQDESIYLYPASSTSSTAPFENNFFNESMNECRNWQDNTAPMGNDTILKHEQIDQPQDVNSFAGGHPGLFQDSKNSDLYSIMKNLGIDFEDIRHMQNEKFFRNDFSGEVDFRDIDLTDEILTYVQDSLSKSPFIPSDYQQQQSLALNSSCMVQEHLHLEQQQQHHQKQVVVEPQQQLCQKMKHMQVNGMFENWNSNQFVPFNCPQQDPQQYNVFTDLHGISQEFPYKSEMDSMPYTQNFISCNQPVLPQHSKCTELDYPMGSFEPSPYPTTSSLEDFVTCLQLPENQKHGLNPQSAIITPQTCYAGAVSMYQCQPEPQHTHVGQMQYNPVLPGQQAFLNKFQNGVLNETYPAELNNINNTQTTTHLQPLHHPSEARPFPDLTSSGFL
Assay: Transactivation assay in human cell line (in vitro assay 1: antagonism)
Format: cell-based
Settings: U87 glioblastoma cells, AHR inducible (DRE) firefly luciferase reporter, 150 μM kynurenic acid, 20 hours
Procedure: Transactivation Assay in Human Cell Line (In Vitro Assay 1)
Transactivation assay was carried out in U87 glioblastoma cells (ATCC) endogenously expressing AHR. In addition the cells were stably transfected with an AHR inducible firefly luciferase reporter gene construct that carried AHR-binding sites (DRE) in its promoter and a renilla reporter gene construct with constitutively active promoter. Kynurenic acid is an endogenous AHR activating ligand and was used to prestimulate test cells prior to testing the antagonistic properties of compounds.
In Vitro Assay 1: Antagonism in Human Cell Line
Firefly luciferase and Renilla activity was determined by the DualGlo Luciferase Assay System (Promega, #2920). Renilla activity was used to assess toxic effects of compounds.

Compound	IC50
Cc1noc(C)c1-c1nc(C(=O)NCC(C)(C)O)cc(-c2ccc(Cl)cc2)n1 [Example 56, 6-(4-chlorophenyl)-2-(3,5-dimethyl-1,2-oxazol-4-yl)-N-(2-hydroxy-2-methylpropyl)pyrimidine-4-carboxamide]	965 nM
C[C@@H](CO)NC(=O)c1cc(-c2ccc(Cl)cc2)nc(-c2cn[nH]c2)n1 [Example 81, 6-(4-chlorophenyl)-N-[(2S)-1-hydroxypropan-2-yl]-2-(1H-pyrazol-4-yl)pyrimidine-4-carboxamide]	1040 nM
C[C@@H](CO)NC(=O)c1cc(-c2ccc(OC(F)(F)F)cc2)nc(-c2cccs2)n1 [Example 30, N-[(2S)-1-hydroxypropan-2-yl]-2-(thiophen-2-yl)-6-[4-(trifluoromethoxy)phenyl]pyrimidine-4-carboxamide]	6.38 nM
Cn1cc(-c2nc(C(=O)N[C@H]3CC[C@H]3O)cc(-c3ccc(OC(F)(F)F)cc3)n2)cn1 (relative stereo) [Example 107, N-[(cis)-2-hydroxycyclobutyl]-2-(1-methyl-1H-pyrazol-4-yl)-6-[4-(trifluoromethoxy)phenyl]pyrimidine-4-carboxamide]	4.57 nM
COc1ccc(-c2nc(C(=O)NCC(C)(C)O)cc(-c3ccc(OC(F)(F)F)cc3)n2)cn1 [Example 14, N-(2-hydroxy-2-methylpropyl)-2-(6-methoxypyridin-3-yl)-6-[4-(trifluoromethoxy)phenyl]pyrimidine-4-carboxamide]	307 nM
C[C@@H](CO)NC(=O)c1cc(-c2ccc(OC(F)(F)F)cc2)nc(-c2ccsc2)n1 [Example 31, N-[(2S)-1-hydroxypropan-2-yl]-2-(thiophen-3-yl)-6-[4-(trifluoromethoxy)phenyl]pyrimidine-4-carboxamide]	14.5 nM
Cc1ccsc1-c1nc(C(=O)N[C@@H](C)CO)cc(-c2ccc(OC(F)(F)F)cc2)n1 [Example 33, N-[(2S)-1-hydroxypropan-2-yl]-2-(3-methylthiophen-2-yl)-6-[4-(trifluoromethoxy)phenyl]pyrimidine-4-carboxamide]	9.25 nM
Cc1cn[nH]c1-c1nc(C(=O)N[C@@H](C)CO)cc(-c2ccc(OC(F)(F)F)cc2)n1 [Example 45, N-[(2S)-1-hydroxypropan-2-yl]-2-(4-methyl-1H-pyrazol-5-yl)-6-[4-(trifluoromethoxy)phenyl]pyrimidine-4-carboxamide]	57.2 nM
COc1ccc(-c2nc(C(=O)NCC(C)(C)O)cc(-c3ccc(Cl)cc3)n2)cn1 [Example 46, 6-(4-chlorophenyl)-N-(2-hydroxy-2-methylpropyl)-2-(6-methoxypyridin-3-yl)pyrimidine-4-carboxamide]	431 nM
Cn1cc(-c2nc(C(=O)NCC3(O)CCC3)cc(-c3ccc(OC(F)(F)F)cc3)n2)cn1 [Example 97, N-[(1-hydroxycyclobutyl)methyl]-2-(1-methyl-1H-pyrazol-4-yl)-6-[4-(trifluoromethoxy)phenyl]pyrimidine-4-carboxamide]	4.99 nM
CC(C)(O)CNC(=O)c1cc(-c2ccc(OC(F)(F)F)cc2)nc(-c2cnn(C3CC3)c2)n1 [Example 26, 2-(1-cyclopropyl-1H-pyrazol-4-yl)-N-(2-hydroxy-2-methylpropyl)-6-[4-(trifluoromethoxy)phenyl]pyrimidine-4-carboxamide]	3960 nM
Cn1cc(-c2nc(C(=O)N[C@H]3CCC[C@H]3O)cc(-c3ccc(OC(F)(F)F)cc3)n2)cn1 (relative stereo) [Example 91, N-[(cis)-2-hydroxycyclopentyl]-2-(1-methyl-1H-pyrazol-4-yl)-6-[4-(trifluoromethoxy)phenyl]pyrimidine-4-carboxamide]	1.58 nM
Cc1cscc1-c1nc(C(=O)N[C@@H](C)CO)cc(-c2ccc(OC(F)(F)F)cc2)n1 [Example 29, N-[(2S)-1-hydroxypropan-2-yl]-2-(4-methylthiophen-3-yl)-6-[4-(trifluoromethoxy)phenyl]pyrimidine-4-carboxamide]	15.2 nM
CC(C)(O)CNC(=O)c1cc(-c2ccc(Cl)cc2)nc(-c2cnc(Cl)nc2)n1 [Example 67, 2′-chloro-6-(4-chlorophenyl)-N-(2-hydroxy-2-methylpropyl)[2,5′-bipyrimidine]-4-carboxamide]	12600 nM
COc1ccc(-c2nc(C(=O)N[C@@H](C)CO)cc(-c3ccc(OC(F)(F)F)cc3)n2)cn1 [Example 27, N-[(2S)-1-hydroxypropan-2-yl]-2-(6-methoxypyridin-3-yl)-6-[4-(trifluoromethoxy)phenyl]pyrimidine-4-carboxamide]	438 nM
C[C@@H](CO)NC(=O)c1cc(-c2ccc(Cl)cc2)nc(-c2cnc(Cl)nc2)n1 [Example 84, 2′-chloro-6-(4-chlorophenyl)-N-[(2S)-1-hydroxypropan-2-yl][2,5′-bipyrimidine]-4-carboxamide]	17600 nM
Cc1n[nH]cc1-c1nc(C(=O)NCC(C)(C)O)cc(-c2ccc(Cl)cc2)n1 [Example 65, 6-(4-chlorophenyl)-N-(2-hydroxy-2-methylpropyl)-2-(3-methyl-1H-pyrazol-4-yl)pyrimidine-4-carboxamide]	355 nM
CC(C)(O)CNC(=O)c1cc(-c2ccc(Cl)cc2)nc(-c2ccc(C#N)nc2)n1 [Example 59, 6-(4-chlorophenyl)-2-(6-cyanopyridin-3-yl)-N-(2-hydroxy-2-methylpropyl)pyrimidine-4-carboxamide]	6870 nM
C[C@@H](CO)NC(=O)c1cc(-c2ccc(OC(F)(F)F)cc2)nc(-c2cnn(C3CC3)c2)n1 [Example 44, 2-(1-cyclopropyl-1H-pyrazol-4-yl)-N-[(2S)-1-hydroxypropan-2-yl]-6-[4-(trifluoromethoxy)phenyl]pyrimidine-4-carboxamide]	972 nM
Cc1nn(C)cc1-c1nc(C(=O)NCC(C)(C)O)cc(-c2ccc(Cl)cc2)n1 [Example 66, 6-(4-chlorophenyl)-2-(1,3-dimethyl-1H-pyrazol-4-yl)-N-(2-hydroxy-2-methylpropyl)pyrimidine-4-carboxamide]	50.1 nM
Cc1ncc(-c2nc(C(=O)N[C@@H](C)CO)cc(-c3ccc(OC(F)(F)F)cc3)n2)cn1 [Example 42, N-[(2S)-1-hydroxypropan-2-yl]-2′-methyl-6-[4-(trifluoromethoxy)phenyl][2,5′-bipyrimidine]-4-carboxamide]	120 nM
Cn1cc(-c2nc(C(=O)N[C@@H]3CS(=O)(=O)C[C@@H]3O)cc(-c3ccc(OC(F)(F)F)cc3)n2)cn1 (relative stereo) [Example 98, N-[(cis)-4-hydroxy-1,1-dioxo-1lambda^6-thiolan-3-yl]-2-(1-methyl-1H-pyrazol-4-yl)-6-[4-(trifluoromethoxy)phenyl]pyrimidine-4-carboxamide]	20.6 nM
CC(C)(O)CNC(=O)c1cc(-c2ccc(Cl)cc2)nc(-c2cc[nH]n2)n1 [Example 58, 6-(4-chlorophenyl)-N-(2-hydroxy-2-methylpropyl)-2-(1H-pyrazol-3-yl)pyrimidine-4-carboxamide]	328 nM
CC(C)(O)CNC(=O)c1cc(-c2ccc(OC(F)(F)F)cc2)nc(-c2cnc(C#N)nc2)n1 [Example 23, 2′-cyano-N-(2-hydroxy-2-methylpropyl)-6-[4-(trifluoromethoxy)phenyl][2,5′-bipyrimidine]-4-carboxamide]	> 20000 nM
C[C@@H](CO)NC(=O)c1cc(-c2ccc(Cl)cc2)nc(-c2cccs2)n1 [Example 50, 6-(4-chlorophenyl)-N-[(2S)-1-hydroxypropan-2-yl]-2-(thiophen-2-yl)pyrimidine-4-carboxamide]	5.91 nM
Cc1n[nH]cc1-c1nc(C(=O)N[C@@H](C)CO)cc(-c2ccc(Cl)cc2)n1 [Example 82, 6-(4-chlorophenyl)-N-[(2S)-1-hydroxypropan-2-yl]-2-(3-methyl-1H-pyrazol-4-yl)pyrimidine-4-carboxamide]	215 nM
C[C@@H](CO)NC(=O)c1cc(-c2ccc(Cl)cc2)nc(-c2ccc(C#N)nc2)n1 [Example 78, 6-(4-chlorophenyl)-2-(6-cyanopyridin-3-yl)-N-[(2S)-1-hydroxypropan-2-yl]pyrimidine-4-carboxamide]	741 nM
C[C@@H](CO)NC(=O)c1cc(-c2ccc(OC(F)(F)F)cc2)nc(-c2ccc(C#N)nc2)n1 [Example 38, 2-(6-cyanopyridin-3-yl)-N-[(2S)-1-hydroxypropan-2-yl]-6-[4-(trifluoromethoxy)phenyl]pyrimidine-4-carboxamide]	4510 nM
